Values quoted from earlier work in patent US20110290119A1, “ANTIMICROBIAL ELECTRET WEB” (3M Innovative Properties Company, priority 2009, published 2011).

Test system: Ps. aeruginosa (gram negative)
Details: known

## O=C1OC2(c3cc(I)c(O)c(I)c3Oc3c2cc(I)c(O)c3I)c2c(Cl)c(Cl)c(Cl)c(Cl)c21 [rose bengal, 4,5,6,7-Tetrachloro-3′,6′-dihydroxy-2′,4′,5′,7′-tetraiodo-3H-spiro[isobenzofuran-1,9′-xanthen]-3-one]
  microbial load reduction: not particularly effective
